Columns and labels:
PGE2 = PGE2 levels in tears and cornea of rabbits by ELISA; format: in vivo, rabbit
Procedure: The effects of PS, ketorolac and dicofenac (the latter two ophthalmic NSAIDs known to induce corneal melt) on the tear levels of PGE2 in rabbits with concanavalin A-induced dry eye were compared. Three eye drops of PS 1.5% or of commercially available ketorolac 0.5% were given at 0 time, and 1 h later to rabbits with concanavalin A-induced DED. Tears were obtained at 2 h and the levels of PGE2 were determined by ELISA. PGE2 in tears of naïve rabbits (not exposed to concanavalin A nor treated) was also measured. The PGE2 levels (mean±SEM) were: Naïve, 110.4±12.6 ng/ml; PS-treated, 115.4±15.8 ng/ml; Ketorolac-treated, 77.7±8.7 ng/ml. The difference in PS vs. ketorolac was significant, p<0.02; as was the difference in ketorolac vs naïve, p<0.03. Regarding this parameter, PS differs radically form ketorolac, which induces corneal melt.
Levels of PGE2 in the corneas of three groups of rabbits were determined by ELISA. Rabbits were treated with PS 1.6% or ketorolac 0.5% eye drops topically applied to their eyes or were not treated (naïve group). Results in pg/mg protein (mean±SEM). Naïve=787.3±96.3; PS=880.6±110.3; Ketrolorac=247.2±187.4 (p<0.01 vs PS).
Rabbits with DED induced by concanavalin A as above were treated for 6 days with vehicle, or PS 2.3% or ketorolac 0.5% or diclofenac 0.1%. Compared to the vehicle group, on day 6 the PGE2 levels in the cornea were 106% of the vehicle value in the PS group (not a statistically significant difference), 1.3% in the ketorolac group (p<0.0001 vs. vehicle, and 2.3% in the diclofenac group (p<0.0001 vs. vehicle).
It was determined that the levels of PGE2 in rabbit tears in three groups of rabbits, naïve and those with Con A-induced DED that were treated for 1 week either with PS or vehicle.
In an acute experiment, administered once topically to the eyes of four groups of rabbits with Con A-induced DED was one of the following: vehicle, PS, ketorolac or diclofenac; the latter two are NSAIDs used for the treatment of ocular inflammation and pain. It was determined that the levels of PGE2 in the cornea of these rabbits obtained 1 h later as well as in the corneas of naïve rabbits.

MMP-1 = MMP-1 levels in cultured human conjunctival cells (ELISA); format: cell-based; settings: for reduction of MMP-1 secreted into the culture medium: compared to controls; for levels of MMP-1 secreted into the culture medium: mean±SEM
Procedure: In an in vitro assay with purified MMP-1 (collagenase I) as […] it was shown that PS inhibited collagenase activity with an IC50 of <100 nM. In cultured human conjunctiva cells, PS suppressed MMP-1 by 75%-86%. In the lacrimal glands of rabbits with DED treated with PS eye drops, PS suppressed MMP-9 levels by 27% compared to vehicle treated rabbits (2.20±0.24 vs. 1.66±0.20 ng/mg protein; p<0.05; mean±SEM).
The Mechanism of Action of PS in Dry Eye. Tissue culture, animal and human studies have established inflammation as the core mechanism of DED^8. To determine the mechanism of action of PS in DED the response to PS of several factors known to play an important role in the inflammation associated with DED was explored. They include NF-κB; the cytokines TGF-β, IL-1 β, IL-6 and IL-8; the collagenases MMP-1 and MMP-9; and PGE2. In these studies we used human conjunctival epithelial cells, the Wong-Kilbourne derivative of Chang conjunctival cells (clone 1 to 5c-41 American Type Culture Collection (Manassas, Va.) certified cell line, 20.2).

JNK and Erk1/2 = assay: MAPK activation by phosphorylation in human conjunctival cells (immunoblot); format: cell-based; settings: 3.5 h, FIG. 6B
Procedure: FIGS. 6A and 6B illustrate that PS suppresses the activation of NF-κB and MAPKs. In FIG. 6A, NF-κB activation was determined by EMSA in cultured human conjunctival cells stimulated with TNFα (top) and in the ILG of rabbits with Con A-induced DED and treated for one week with either vehicle or PS (bottom). In FIG. 6B, immunoblots detecting the activation of MAPKs by phosphorylation in cultured human conjunctival cells treated with PS at the indicated concentrations for 3.5 h. Loading control: β-actin.
Our conjunctiva cells express only the JNK and Erk1/2 pathways.

NF-κB = NF-κB activation in the ILG of rabbits with DED; format: in vivo, rabbit; settings: 1 week of treatment, vs vehicle
Procedure: Human conjunctival cells were treated with various concentrations of PS. Five hours later, TNF-α was added to the culture medium to a final concentration of 10 ng/ml and the status of NF-κB activation was determined by EMSA 1 h later. […] Similarly, after 1 week of treatment, PS suppressed NF-κB activation in the ILG of rabbits with DED compared to those treated with vehicle.

[1] = Biodistribution of PS in porcine eyes (ex vivo); format: in vitro ADME, pig; settings: porcine eye ex vivo, 2% PS nanoparticle solution
Excerpt: Biodistribution of PS in porcine eyes (ex vivo): Explanted pig eyes were exposed to PS nanoparticle solution (PS concentration was 2%) and treated as were the human eyes.

[2] = exposure/incubation 1/15 min/min
[3] = exposure/incubation 1/60 min/min
[4] = exposure/incubation 10/15 min/min
[5] = exposure/incubation 10/60 min/min

CCOP(=O)(OCC)OCCCCOC(=O)CC1=C(C)/C(=C/c2ccc([S+](C)[O-])cc2)c2ccc(F)cc21 (stereo not drawn) [PS, phosphosulindac]
PGE2 levels in tears (PGE2; Con A DED rabbits treated for 1 week, FIG. 9A): slightly lower than (but not significantly different from) those of naïve rabbits | PGE2 levels in the cornea (PGE2; Con A DED rabbits, administered once topically, 1 h later, FIG. 9B): no different than those of vehicle-treated and naïve rabbits | PGE2 levels in the cornea, % of the vehicle value (PGE2; Con A DED rabbits, day 6, PS 2.3%, ketorolac 0.5%, diclofenac 0.1%): 106% | PGE2 levels in tears (PGE2; Con A DED rabbits, three eye drops at 0 and 1 h, tears at 2 h, PS 1.5%, ketorolac 0.5%, mean±SEM): 115.4 ± 15.8 ng/mL | PGE2 levels in the corneas (PGE2; rabbits, PS 1.6% or ketorolac 0.5% eye drops, mean±SEM): 880.6±110.3 pg/mg protein | reduction of MMP-1 secreted into the culture medium (MMP-1; PS 1×IC50, 2 h): 48% | levels of MMP-1 secreted into the culture medium (MMP-1; PS 1×IC50, 2 h): 24.9±0.8 | reduction of MMP-1 secreted into the culture medium (MMP-1; PS 1.5×IC50, 2 h): 55% | levels of MMP-1 secreted into the culture medium (MMP-1; PS 1.5×IC50, 2 h): 21.6±0.8 | MMP-1 suppression (MMP-1; cultured human conjunctiva cells): 75%-86% | activation by phosphorylation of JNK and Erk1/2 (JNK and Erk1/2): profoundly suppressed | NF-κB activation in the ILG (NF-κB): suppressed | PS in Cornea [1, 2]: 51.5 µM | PS in Lens [1, 2]: 9.5 µM | PS in Sclera [1, 2]: 86.6 µM | PS in Cornea [1, 3]: 99.8 µM | PS in Lens [1, 3]: 4.8 µM | PS in Sclera [1, 3]: 123.9 µM | PS in Cornea [1, 4]: 97.1 µM | PS in Lens [1, 4]: 1.9 µM | PS in Sclera [1, 4]: 89.9 µM | PS in Cornea [1, 5]: 170.6 µM | PS in Lens [1, 5]: 2.1 µM | PS in Sclera [1, 5]: 47.9 µM

— patent US11510931B2, “Compositions and methods for treating ophthalmic conditions” (MEDICON PHARMACEUTICALS, INC., priority 2016, dated 2022)
